Values of other authors in US12728131B2, “Compositions for the treatment of glaucoma and ocular hypertension” (Nicox S.A., priority 2020, dated 2026).
Read-outs that look alike come from different tables or passages of the source.

Settings: phase 2 dose-ranging VOYAGER study

SMILES	reduction in mean diurnal IOP (0.024%) [mmHg]	reduction in mean diurnal IOP (0.005%) [mmHg]
O=C(CCC/C=C\C[C@@H]1[C@@H](CC[C@@H](O)CCc2ccccc2)[C@H](O)C[C@@H]1O)OCCCCO[N+](=O)[O-] [latanoprostene bunod]	9.0	
CC(C)OC(=O)CCC/C=C\C[C@@H]1[C@@H](CC[C@@H](O)CCc2ccccc2)[C@H](O)C[C@@H]1O [latanoprost, propan-2-yl (Z)-7-[(1R,2R,3R,5S)-3,5-dihydroxy-2-[(3R)-3-hydroxy-5-phenylpentyl]cyclopentyl]hept-5-enoate]		7.77
